Patent US5017618A, “Labile derivatives of ketone analogs of 3-substituted-1-alkylamino-2-propanols and their use as beta-adrenergic blockers” (priority 1989, dated 1991)

What was measured:
[1] = test system: iris-ciliary body; conditions: topical application to the eye; cited from earlier work
[2] = In vivo distribution-metabolism in rat's blood
Experimental: A group of seven adult male Sprague-Dawley rats weighing 150-250 g was used. […] After 1, 3, 5, 20, 40 and 60 minutes, one mL of blood was withdrawn from the jugular vein and dropped immediately into a tared tube containing 1 mL of ice-cold acetonitrile. The tubes were vigorously shaken, centrifuged, decanted and analyzed for propranolol 1a and propranolone oxime 5a by HPLC. Quantitation was done by using a calibration curve obtained by addition of known amounts of propranolol oxime HCl 6a to blood obtained from a control rat pretreated with saline solution.
A high pressure liquid chromatography (HPLC) method was developed for the assay of the β-blockers and their ketoxime analogs in biological fluids. […] An ASI reverse phase chrompack C18 column, operated at ambient temperature, was used for all separation. The mobile phase used for separation of propranolol 1a and propranolone oxime 5a consisted of water (90 mL), 1-heptanesulfonic acid (1g), 0.1M acetic acid (10 mL), 0.1M triethanolamine (100 mL) and methanol (799 mL).

[3] = test system: ocular tissues of rabbits; test: In vivo distribution-metabolism in ocular tissues of rabbits; conditions: for Tissue concentration: after topical propranolone oxime HCl 6a 1%
Experimental: (§1) Adult male New Zealand albino rabbits weighing 2.5-3.5 kg were used. Standard doses of 100 μl of 1% solution of the drugs in saline solution were administered topically to both eyes of each rabbit. After appropriate time intervals (30, 60 and 120 minutes), the animals were sacrificed. Aqueous humor was obtained by making a single puncture at the limbus using a 25 g×5/8" needle attached to 1 cm^3 syringe. Then the cornea and the iris-ciliary body were isolated. The tissues were pooled and homogenized using a Tekmar SDT tissuemizer in ice cold perchloric acid (0.05M) which contained 0.05% sodium metabisulfite as antioxidant. Samples were then rehomogenized in CH3 OH to prepare 10% homogenates, transferred to micro-filters and centrifuged for 20 minutes at 10000 r/minute to precipitate proteins. Aqueous humor was analyzed as such without any further dilution. Aliquots of 5-20 μl of the 10% tissue homogenate samples were analyzed by HPLC.

[4] = as above; conditions: rabbit, topical or ocular, 1 %, Tissue concentration
Experimental: as §1

[5] = test system: rabbit iris-ciliary body; test: Stereospecificity of enzymatic reduction in iris-ciliary body (chiral derivatization HPLC); format: in vivo; conditions: iris-ciliary body of rabbit treated with the oxime
Description: Finally, it was shown that the enzymatic reduction of the ketone is stereospecific. The extract residue from the iris-ciliary body of rabbit treated with 1-(isopropylamino)-3-(1-naphthyloxy)-2-propranolone oxime was reacted with the chiral reagent, 2,3,4,6-tetra-O-acetyl-β-D-glucoppyranosyl isocyanate, in acetonitrile and analyzed by the HPLC procedure of Sedman et al, J. Chromatogr. 278, 199-203, 1983 (Supelcosil LC-18 reversed-phase column of 7.5 cm×4.6 mm with 3 μm particles, mobile phase: 60% acetonitrile in 0.02M aqueous monobasic ammonium phosphate solution, 1 mL/min flow rate, UV detection at 254 nm).

[6] = cited from earlier work

In the case of `CNCC(=O)c1ccc(O)c(O)c1` [adrenalone], the “conversion to adrenaline in the eye” value [1] is listed as “not adrenalone itself can be converted via a reduction-hydrolysis sequence to deliver adrenaline”.
With `CC(C)NCC(COc1cccc2ccccc12)=NO` [propranolone oxime 5a, 1-(Isopropylamino)-3-(1-naphthyloxy)-2-propanone oxime] the metabolite in blood ([2]; after i.v. oxime, disappeared 5 minutes after injection) was “another more polar compound was detected”, the half-life ([2]; blood, iv, 6 mg/kg) was 7.64 ± 0.55 min and the “presence of oxime in blood” value ([2]; one hour after i.v. administration) was “completely disappeared from the blood”. It also gave a Tissue concentration ([3]; aqueous humor, 120 min.) of 0.00 ± 0.00 mcg/g tissue, a Tissue concentration ([3]; cornea, 120 min.) of 0.00 ± 0.00 mcg/g tissue and a Tissue concentration ([3]; iris-ciliary body, 60 min.) of 0.00 ± 0.00 mcg/g tissue. It also gave a Tissue concentration ([3]; iris-ciliary body, 120 min.) of 0.00 ± 0.00 mcg/g tissue, a concentration at 0.5 h ([4]; aqueous humor) of 820 ± 90 ng/g and a concentration at 1 h ([4]; aqueous humor) of 800 ± 60 ng/g. For the same compound, the concentration at 0.5 h ([4]; cornea) was 23800 ± 4910 ng/g, the concentration at 1 h ([4]; cornea) was 16400 ± 5800 ng/g and the concentration at 0.5 h ([4]; iris-ciliary body) was 7790 ± 1100 ng/g. For the same compound, the “stereospecificity: enantiomer of propranolol formed” value [5] was “The sole presence of the S-(-)-enantiomer of 1-(isopropylamino)-3-(1-naphthyloxy)-2-propanol (propranolol) was established”.
For `CC(C)(C)NC[C@H](O)COc1nsnc1N1CCOCC1` [timolol], the “detection of parent β-adrenergic antagonist in eye compartments” value ([3]; after ophthalmic 6b, low dose level used) is listed as “could not be found in any of the eye compartments” and the “side effects secondary to topical ocular administration” value [6] is listed as “a vast number of serious cardiovascular, respiratory, CNS and ocular side effects”.
